Laboratory results as given in the NIST ThermoML archive (doi:10.1016/j.tca.2005.10.007).

Conditions: 101.33 kPa, Liquid, Vibrating tube method

CC(O)CN (configuration not stated) [1-amino-2-propanol]
Conditions	mass density [kg/m3]
278.16 K	972.17
278.65 K	971.79
279.14 K	971.4
279.65 K	971.01
280.15 K	970.62
280.65 K	970.23
281.15 K	969.84
281.65 K	969.45
282.15 K	969.05
282.65 K	968.66
283.15 K	968.27
283.65 K	967.88
284.15 K	967.49
284.65 K	967.1
285.15 K	966.7
285.65 K	966.31
286.15 K	965.92
286.64 K	965.52
287.15 K	965.13
287.65 K	964.73
288.15 K	964.34
288.65 K	963.95
289.15 K	963.55
289.65 K	963.15
290.15 K	962.76
290.65 K	962.36
291.15 K	961.97
291.64 K	961.57
292.15 K	961.18
292.65 K	960.78
293.15 K	960.38
293.64 K	959.99
294.14 K	959.59
294.64 K	959.19
295.15 K	958.79
295.65 K	958.39
296.15 K	957.99
296.65 K	957.6
297.15 K	957.2
297.64 K	956.8
298.15 K	956.4
298.65 K	956
299.15 K	955.6
299.64 K	955.2
300.14 K	954.8
300.64 K	954.4
301.15 K	954
301.65 K	953.59
302.14 K	953.2
302.65 K	952.79
303.15 K	952.39
303.64 K	951.99
304.15 K	951.59
304.65 K	951.18
305.15 K	950.78
305.64 K	950.38
306.15 K	949.98
306.65 K	949.57
307.15 K	949.17
307.64 K	948.77
308.15 K	948.36
308.65 K	947.95
309.15 K	947.55
309.65 K	947.14
310.15 K	946.74
310.65 K	946.33
311.15 K	945.92
311.64 K	945.52
312.15 K	945.11
312.64 K	944.7
313.15 K	944.3
313.65 K	943.89
314.15 K	943.48
314.65 K	943.07
315.15 K	942.66
315.65 K	942.25
316.15 K	941.84
316.65 K	941.43
317.15 K	941.03
317.65 K	940.61
318.15 K	940.2
318.65 K	939.79
319.14 K	939.38
319.65 K	938.96
320.15 K	938.55
320.64 K	938.14
321.15 K	937.72
321.65 K	937.31
322.15 K	936.9
322.65 K	936.49
323.15 K	936.08
323.65 K	935.66
324.15 K	935.25
324.65 K	934.83
325.15 K	934.42
325.65 K	934.01
326.15 K	933.59
326.65 K	933.18
327.15 K	932.76
327.65 K	932.35
328.15 K	931.93
328.66 K	931.51
329.15 K	931.09
329.66 K	930.68
330.16 K	930.26
330.66 K	929.84
331.15 K	929.42
331.66 K	929
332.16 K	928.58
332.66 K	928.16
333.16 K	927.74
333.66 K	927.31
334.16 K	926.89
334.66 K	926.47
335.16 K	926.05
335.66 K	925.63
336.16 K	925.2
336.66 K	924.78
337.16 K	924.36
337.66 K	923.93
338.16 K	923.5
338.66 K	923.08
339.16 K	922.65
339.66 K	922.23
340.16 K	921.8
340.66 K	921.38
341.16 K	920.95
341.66 K	920.52
342.16 K	920.09
342.66 K	919.66
343.16 K	919.23
343.66 K	918.8
344.16 K	918.37
344.66 K	917.94
345.16 K	917.51
345.66 K	917.08
346.16 K	916.65
346.66 K	916.21
347.16 K	915.78
347.66 K	915.35
348.16 K	914.92
348.66 K	914.48
349.16 K	914.05
349.66 K	913.61
350.16 K	913.18
350.66 K	912.74
351.16 K	912.3
351.66 K	911.87
352.16 K	911.43
352.66 K	910.99
353.16 K	910.55
353.66 K	910.12
354.16 K	909.68
354.66 K	909.23
355.16 K	908.8
355.66 K	908.35
356.16 K	907.91
356.66 K	907.47
357.16 K	907.03
357.66 K	906.59
358.16 K	906.14
358.66 K	905.7
359.16 K	905.26
359.66 K	904.81
360.16 K	904.36
360.65 K	903.92
361.16 K	903.47
361.66 K	903.03
362.16 K	902.58
362.66 K	902.13
363.15 K	901.68
363.16 K	901.69
